# Assay results: patent US8703701B2 (Indiana University Research and Technology Corporation, priority 2009, dated 2014)
# Starred links: 1 amine or outer side, 2 acyl side, 3 side chain; linkers in the order of their positions; H or OH if unused. Non-standard residues stand in square brackets, D forms with d. Residues, ends and D or L forms follow the SMILES beside them. Groups on a side chain read outwards from the residue. *: point of attachment. γGlu = O=C(O)[C@H](CCC(=O)[*:2])N[*:1]; Palmitoyl = CCCCCCCCCCCCCCCC(=O)*; Aib = CC(C)(N)C(=O)O
# Tests used:
# GLP-1 receptor = biological target: T1, GLP-1 receptor (Homo sapiens, UniProt P43220); test: cAMP induction, firefly luciferase reporter assay, GLP-1 receptor; format: cell-based; conditions: for Activity at GLP-1 Receptor % Relative Activity: compared to native GLP-1
# T1 construct: expressed in transfected cells; host or cells: HEK293
# T1 sequence (P43220 24-463): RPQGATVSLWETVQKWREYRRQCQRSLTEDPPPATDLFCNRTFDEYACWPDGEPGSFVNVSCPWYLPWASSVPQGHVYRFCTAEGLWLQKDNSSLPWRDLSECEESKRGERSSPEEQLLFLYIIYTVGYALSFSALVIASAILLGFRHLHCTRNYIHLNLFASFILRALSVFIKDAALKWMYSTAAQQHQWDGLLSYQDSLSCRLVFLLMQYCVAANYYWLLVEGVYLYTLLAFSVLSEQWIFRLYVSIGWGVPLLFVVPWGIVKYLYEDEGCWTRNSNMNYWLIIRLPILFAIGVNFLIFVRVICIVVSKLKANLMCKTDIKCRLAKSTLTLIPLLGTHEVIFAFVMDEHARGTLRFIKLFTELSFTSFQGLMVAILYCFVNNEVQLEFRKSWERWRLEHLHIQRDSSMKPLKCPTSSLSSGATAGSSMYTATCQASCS
# Procedure: (§1) The ability of each peptide to induce cAMP was measured in a firefly luciferase-based reporter assay.
# (§2) At the end of the incubation, 100 μL of LucLite luminescence substrate reagent (Perkin Elmer, Wellesley, Mass.) were added to each well. The plate was shaken briefly, incubated 10 min in the dark and light output was measured on MicroBeta-1450 liquid scintillation counter (Perkin-Elmer, Wellesley, Mass.).
# glucagon receptor = biological target: T2, glucagon receptor (Homo sapiens, UniProt P47871); test: cAMP induction, firefly luciferase reporter assay, glucagon receptor; format: cell-based; conditions: compared to native glucagon
# T2 construct: expressed in transfected cells; host or cells: HEK293
# T2 sequence (P47871 26-477): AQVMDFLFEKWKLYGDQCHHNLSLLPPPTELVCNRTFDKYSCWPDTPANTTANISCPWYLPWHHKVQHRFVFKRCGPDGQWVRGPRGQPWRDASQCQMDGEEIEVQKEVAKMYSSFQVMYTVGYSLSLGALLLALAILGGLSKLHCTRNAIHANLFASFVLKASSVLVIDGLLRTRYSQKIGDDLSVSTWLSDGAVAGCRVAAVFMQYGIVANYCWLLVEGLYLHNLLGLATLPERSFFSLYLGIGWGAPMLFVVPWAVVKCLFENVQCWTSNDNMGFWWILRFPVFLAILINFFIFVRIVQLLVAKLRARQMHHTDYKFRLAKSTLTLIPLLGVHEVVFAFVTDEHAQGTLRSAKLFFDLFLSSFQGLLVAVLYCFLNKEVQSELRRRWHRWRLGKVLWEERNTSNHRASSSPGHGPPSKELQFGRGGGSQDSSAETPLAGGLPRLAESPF
# Procedure: as §1, §2
# [1] = EC50 (nM) at GLP-1 Receptor, Table 7B
smiles,measurement,setting,value
CCCCCCCCCCCCCCCC(=O)NCCCC[C@H](NC(=O)[C@H](CC(=O)O)NC(=O)[C@H](CO)NC(=O)[C@@H](NC(=O)[C@H](Cc1ccccc1)NC(=O)[C@@H](NC(=O)CNC(=O)[C@H](CCC(N)=O)NC(=O)C(C)(C)NC(=O)[C@@H](N)Cc1c[nH]cn1)[C@@H](C)O)[C@@H](C)O)C(=O)N[C@@H](CO)C(=O)N[C@@H](CCCCN)C(=O)N[C@@H](Cc1ccc(O)cc1)C(=O)N[C@@H](CC(C)C)C(=O)N[C@@H](CC(=O)O)C(=O)N[C@@H](CCC(=O)O)C(=O)N[C@@H](CCC(=O)O)C(=O)N[C@@H](C)C(=O)N[C@H](C(=O)N[C@@H](CCCNC(=N)N)C(=O)N[C@@H](CC(C)C)C(=O)N[C@@H](Cc1ccccc1)C(=O)N[C@H](C(=O)N[C@@H](CCC(=O)O)C(=O)N[C@@H](Cc1c[nH]c2ccccc12)C(=O)N[C@@H](CC(C)C)C(=O)N[C@@H](CCSC)C(=O)N[C@@H](CC(N)=O)C(=O)N[C@H](C(N)=O)[C@@H](C)O)[C@@H](C)CC)C(C)C [compound 40] (H-H[Aib]QGTFTSDK(Palmitoyl)SKYLDEEAVRLFIEWLMNT-NH2; N-terminus assumed),EC50,GLP-1 receptor; [1],0.024 nM
CCCCCCCCCCCCCCCC(=O)N[C@@H](CCC(=O)NCCCC[C@H](NC(=O)[C@H](CC(=O)O)NC(=O)[C@H](CO)NC(=O)[C@@H](NC(=O)[C@H](Cc1ccccc1)NC(=O)[C@@H](NC(=O)CNC(=O)[C@H](CCC(N)=O)NC(=O)[C@@H](C)NC(=O)[C@@H](N)Cc1c[nH]cn1)[C@@H](C)O)[C@@H](C)O)C(=O)N[C@@H](CO)C(=O)N[C@@H](CCCCN)C(=O)N[C@@H](Cc1ccc(O)cc1)C(=O)N[C@@H](CC(C)C)C(=O)N[C@@H](CC(=O)O)C(=O)N[C@@H](CCC(=O)O)C(=O)N[C@@H](CCCNC(=N)N)C(=O)N[C@@H](C)C(=O)N[C@@H](C)C(=O)N[C@@H](CCC(N)=O)C(=O)N[C@@H](CC(=O)O)C(=O)N[C@@H](Cc1ccccc1)C(=O)N[C@H](C(=O)N[C@@H](CS)C(=O)N[C@@H](Cc1c[nH]c2ccccc12)C(=O)N[C@@H](CC(C)C)C(=O)N[C@@H](CC(C)C)C(=O)N[C@@H](CC(=O)O)C(=O)N[C@H](C(N)=O)[C@@H](C)O)C(C)C)C(=O)O [compound 59],EC50,"GLP-1 receptor; Activity at GLP-1 Receptor EC50 [nM], Table 6",0.019 nM
same,Activity at GLP-1 Receptor % Relative Activity,GLP-1 receptor; Table 6,484%
same,Activity at Glucagon Receptor % Relative Activity,glucagon receptor; Table 6,490%
CCCCCCCCCCCCCCCC(=O)N[C@@H](CCC(=O)NCCCC[C@H](NC(=O)[C@H](CC(=O)O)NC(=O)[C@H](CO)NC(=O)[C@@H](NC(=O)[C@H](Cc1ccccc1)NC(=O)[C@@H](NC(=O)CNC(=O)[C@H](CCC(N)=O)NC(=O)[C@@H](CO)NC(=O)[C@@H](N)Cc1c[nH]cn1)[C@@H](C)O)[C@@H](C)O)C(=O)N[C@@H](CO)C(=O)N[C@@H](CCCCN)C(=O)N[C@@H](Cc1ccc(O)cc1)C(=O)N[C@@H](CC(C)C)C(=O)N[C@@H](CC(=O)O)C(=O)N[C@@H](CCC(=O)O)C(=O)N[C@@H](CCC(N)=O)C(=O)N[C@@H](C)C(=O)N[C@@H](C)C(=O)N[C@@H](CCCCN)C(=O)N[C@@H](CCC(=O)O)C(=O)N[C@@H](Cc1ccccc1)C(=O)N[C@H](C(=O)N[C@@H](CS)C(=O)N[C@@H](Cc1c[nH]c2ccccc12)C(=O)N[C@@H](CC(C)C)C(=O)N[C@@H](CC(C)C)C(=O)N[C@@H](CC(=O)O)C(=O)N[C@H](C(=O)NCC(=O)NCC(=O)O)[C@@H](C)O)[C@@H](C)CC)C(=O)O [compound 56],EC50,"GLP-1 receptor; Activity at GLP-1 Receptor EC50 [nM], Table 5",0.068 nM
same,Activity at GLP-1 Receptor % Relative Activity,GLP-1 receptor; Table 5,125%
same,Activity at Glucagon Receptor % Relative Activity,glucagon receptor; Table 5,272%
CCCCCCCCCCCCCCCC(=O)N[C@@H](CCC(=O)NCCCC[C@H](NC(=O)[C@H](CC(=O)O)NC(=O)[C@H](CO)NC(=O)[C@@H](NC(=O)[C@H](Cc1ccccc1)NC(=O)[C@@H](NC(=O)CNC(=O)[C@H](CCC(N)=O)NC(=O)[C@@H](CO)NC(=O)[C@@H](N)Cc1c[nH]cn1)[C@@H](C)O)[C@@H](C)O)C(=O)N[C@@H](CO)C(=O)N[C@@H](CCCCN)C(=O)N[C@@H](Cc1ccc(O)cc1)C(=O)N[C@@H](CC(C)C)C(=O)N[C@@H](CC(=O)O)C(=O)N[C@@H](CCC(=O)O)C(=O)N[C@@H](CCC(N)=O)C(=O)N[C@@H](C)C(=O)N[C@@H](C)C(=O)N[C@@H](CCCCN)C(=O)N[C@@H](CCC(=O)O)C(=O)N[C@@H](Cc1ccccc1)C(=O)N[C@H](C(=O)N[C@@H](CS)C(=O)N[C@@H](Cc1c[nH]c2ccccc12)C(=O)N[C@@H](CC(C)C)C(=O)N[C@@H](CC(C)C)C(=O)N[C@@H](CC(=O)O)C(=O)N[C@H](C(=O)NCC(=O)O)[C@@H](C)O)[C@@H](C)CC)C(=O)O [compound 55],Activity at GLP-1 Receptor % Relative Activity,GLP-1 receptor; Table 5,16%
same,Activity at Glucagon Receptor % Relative Activity,glucagon receptor; Table 5,7%
CSCC[C@H](NC(=O)[C@H](CC(C)C)NC(=O)[C@H](Cc1c[nH]c2ccccc12)NC(=O)[C@H](CCC(N)=O)NC(=O)[C@@H](NC(=O)[C@H](Cc1ccccc1)NC(=O)[C@H](CCC(=O)O)NC(=O)[C@H](CCC(N)=O)NC(=O)[C@H](C)NC(=O)[C@H](CCCNC(=N)N)NC(=O)[C@H](CCCCN)NC(=O)[C@H](CO)NC(=O)[C@H](CC(=O)O)NC(=O)[C@H](CC(C)C)NC(=O)[C@H](Cc1ccc(O)cc1)NC(=O)[C@H](CCCCN)NC(=O)[C@H](CO)NC(=O)[C@H](Cc1ccc(O)cc1)NC(=O)[C@H](CC(=O)O)NC(=O)[C@H](CO)NC(=O)[C@@H](NC(=O)[C@H](Cc1ccccc1)NC(=O)[C@@H](NC(=O)CNC(=O)[C@H](CCC(N)=O)NC(=O)[C@H](CO)NC(=O)[C@@H](N)Cc1c[nH]cn1)[C@@H](C)O)[C@@H](C)O)C(C)C)C(=O)N[C@@H](CC(N)=O)C(=O)N[C@H](C(N)=O)[C@@H](C)O [Peptide 1],EC50,"GLP-1 receptor; GLP-1 Receptor EC50 (nM), Table 1, HEK293 cells co-transfected with receptor and CRE-luciferase",0.13 nM
CC[C@H](C)[C@H](NC(=O)[C@H](Cc1ccccc1)NC(=O)[C@H](CC(C)C)NC(=O)[C@H](CCCNC(=N)N)NC(=O)[C@@H](NC(=O)[C@H](C)NC(=O)[C@H](CCC(N)=O)NC(=O)[C@H](CCC(=O)O)NC(=O)[C@H](CC(=O)O)NC(=O)[C@H](CC(C)C)NC(=O)[C@H](Cc1ccc(O)cc1)NC(=O)[C@H](CCCCN)NC(=O)[C@H](CO)NC(=O)[C@H](Cc1ccc(O)cc1)NC(=O)[C@H](CC(=O)O)NC(=O)[C@H](CO)NC(=O)[C@@H](NC(=O)[C@H](Cc1ccccc1)NC(=O)[C@@H](NC(=O)CNC(=O)[C@H](CCC(N)=O)NC(=O)[C@@H](CO)NC(=O)[C@@H](N)Cc1c[nH]cn1)[C@@H](C)O)[C@@H](C)O)C(C)C)C(=O)N[C@@H](CS)C(=O)N[C@@H](Cc1c[nH]c2ccccc12)C(=O)N[C@@H](CC(C)C)C(=O)N[C@@H](CC(C)C)C(=O)N[C@@H](CC(=O)O)C(=O)N[C@H](C(N)=O)[C@@H](C)O [compound 87] (H-H[dS]QGTFTSDYSKYLDEQAVRLFICWLLDT-NH2; N-terminus assumed),EC50,GLP-1 receptor; [1],0.013 nM
CSCC[C@H](NC(=O)[C@H](CC(C)C)NC(=O)[C@H](Cc1c[nH]c2ccccc12)NC(=O)[C@H](CCC(N)=O)NC(=O)[C@@H](NC(=O)[C@H](Cc1ccccc1)NC(=O)[C@H](CCC(=O)O)NC(=O)[C@H](CCCCN)NC(=O)[C@H](C)NC(=O)[C@H](CCCNC(=N)N)NC(=O)[C@H](CCCCN)NC(=O)C(C)(C)NC(=O)[C@H](CC(=O)O)NC(=O)[C@H](CC(C)C)NC(=O)[C@H](Cc1ccc(O)cc1)NC(=O)[C@H](CCCCN)NC(=O)[C@H](CO)NC(=O)[C@H](Cc1ccc(O)cc1)NC(=O)[C@H](CC(=O)O)NC(=O)[C@H](CO)NC(=O)[C@@H](NC(=O)[C@H](Cc1ccccc1)NC(=O)[C@@H](NC(=O)CNC(=O)[C@H](CCC(N)=O)NC(=O)[C@@H](CO)NC(=O)[C@@H](N)Cc1c[nH]cn1)[C@@H](C)O)[C@@H](C)O)C(C)C)C(=O)N[C@@H](CC(N)=O)C(=O)N[C@H](C(N)=O)[C@@H](C)O [compound 21],EC50,"GLP-1 receptor; Activity at GLP-1 Receptor EC50 (nM), Table 2A",0.048 nM
CCCCCCCCCCCCCCCC(=O)N[C@@H](CCC(=O)NCCCC[C@H](NC(=O)[C@H](CC(=O)O)NC(=O)[C@H](CO)NC(=O)[C@@H](NC(=O)[C@H](Cc1ccccc1)NC(=O)[C@@H](NC(=O)CNC(=O)[C@H](CCC(N)=O)NC(=O)[C@H](CO)NC(=O)[C@H](Cc1c[nH]cn1)NC(C)=O)[C@@H](C)O)[C@@H](C)O)C(=O)N[C@@H](CO)C(=O)N[C@@H](CCCCN)C(=O)N[C@@H](Cc1ccc(O)cc1)C(=O)N[C@@H](CC(C)C)C(=O)N[C@@H](CC(=O)O)C(=O)N[C@@H](CCC(=O)O)C(=O)N[C@@H](CCC(N)=O)C(=O)N[C@@H](C)C(=O)N[C@@H](C)C(=O)N[C@@H](CCCCN)C(=O)N[C@@H](CCC(=O)O)C(=O)N[C@@H](Cc1ccccc1)C(=O)N[C@H](C(=O)N[C@@H](CS)C(=O)N[C@@H](Cc1c[nH]c2ccccc12)C(=O)N[C@@H](CC(C)C)C(=O)N[C@@H](CC(C)C)C(=O)N[C@@H](CC(=O)O)C(=O)N[C@H](C(N)=O)[C@@H](C)O)[C@@H](C)CC)C(=O)O [compound 57] (Ac-HSQGTFTSDK([γGlu-Palmitoyl])SKYLDEQAAKEFICWLLDT-NH2),Activity at Glucagon Receptor % Relative Activity,glucagon receptor; Table 5,1%
CCCCCCCCCCCCCCCC(=O)N[C@@H](CCC(=O)NCCCC[C@H](NC(=O)[C@H](CC(=O)O)NC(=O)[C@H](CO)NC(=O)[C@@H](NC(=O)[C@H](Cc1ccccc1)NC(=O)[C@@H](NC(=O)CNC(=O)[C@H](CCC(N)=O)NC(=O)C(C)(C)NC(=O)[C@@H](N)Cc1c[nH]cn1)[C@@H](C)O)[C@@H](C)O)C(=O)N[C@@H](CO)C(=O)N[C@@H](CCCCN)C(=O)N[C@@H](Cc1ccc(O)cc1)C(=O)N[C@@H](CC(C)C)C(=O)N[C@@H](CC(=O)O)C(=O)N[C@@H](CCC(=O)O)C(=O)N[C@@H](CCC(=O)O)C(=O)N[C@@H](C)C(=O)N[C@H](C(=O)N[C@@H](CCCNC(=N)N)C(=O)N[C@@H](CC(C)C)C(=O)N[C@@H](Cc1ccccc1)C(=O)N[C@H](C(=O)N[C@@H](CCC(=O)O)C(=O)N[C@@H](Cc1c[nH]c2ccccc12)C(=O)N[C@@H](CC(C)C)C(=O)N[C@@H](CCSC)C(=O)N[C@@H](CC(N)=O)C(=O)N[C@H](C(N)=O)[C@@H](C)O)[C@@H](C)CC)C(C)C)C(=O)O [compound 38] (H-H[Aib]QGTFTSDK([γGlu-Palmitoyl])SKYLDEEAVRLFIEWLMNT-NH2; N-terminus assumed),EC50,GLP-1 receptor; [1],0.019 nM
